According to patent publication US10954244B2, “Compounds and uses thereof” (Kala Pharmaceuticals, Inc., priority 2013, dated 2021):
Each block holds one compound with its values, some of them ahead of it.

Columns and labels:
[1] = Mobility of nanoparticles in human cervicovaginal mucus (dark field microscopy); settings: low pH of CVM
Experimental: In order to determine whether the generated nanoparticles have reduced interactions with mucins and are therefore able to move within mucus without becoming trapped, particles were incubated with human cervicovaginal mucus (CVM) and observed via dark field microscopy. In a typical experiment, 51 μL of the nanoparticle suspension was added to 20 μl of CVM. Observations were made in a minimum of three distinct and randomly selected areas of the CVM sample. Control particles with known behavior were used to qualify the CVM sample as appropriate for the assay.

[2] = Physical and chemical stability of I-2 solutions at room temperature; assay type: physicochemical; settings: formulation buffered in 20 mM Tris (pH 8), F127
Experimental: Solutions of I-2 were formulated with F127 or Tween 80, and under a range of pH values. Briefly, I-2 was first completely solubilized using an acidic solution (0.1 N HCl) at a high concentration of ˜5% (w/v). The final formulation was diluted to a solution consisting of 0.5% (w/v) I-2 into buffered solution containing F127 or Tween 80 as described in Table 5. Following dilution, the pH of the formulations was measured using pH indicator strips (PEHANON) and confirmed to be within expected range (±0.5 units of target pH).
Physical and chemical stability of the solutions at room temperature (20-25° C.) were assessed after 7-10 days (tfinal). Physical instability in a solution can manifest as the precipitation and sedimentation of the drug of interest and excipients over time. To assess physical stability, the formulations at tfinal were first filtered through a 300 kDa modified polyethersulfone filter membrane (Nanosep) to remove any precipitate in the solution. The concentration of I-2 in the filtrates was then measured and compared to that at t=0. The purity of I-2 in the unfiltered solution was also evaluated at tfinal, to further confirm chemical stability. This parameter is defined by the area under the signal peak that is attributed to compound I-2 as a percentage of all peaks reported by in the sample by HPLC (% peak area).

[3] = Draize-Ocular Irritation assessment; assay type: in vivo, Dutch-belted rabbits; settings: topical I-2 solution during the PK studies
[4] = Milling with Pluronic F127 to mucus penetrating particles, particle size by dynamic light scattering; assay type: physicochemical; settings: formulated as MPP, milled with Pluronic F127, DPBS buffered
From the text: Compounds of the present invention synthesized in accordance with the preceding Examples were formulated as mucus penetrating particles (MPP). Specifically, compounds I-2, compound I-5, and compound I-6 were each milled in the presence of Pluronic F127 (F127) to determine whether F127 1) aids particle size reduction to several hundreds of nanometers and 2) physically (non-covalently) coats the surface of generated nanoparticles with a mucoinert coating that would minimize particle interactions with mucus constituents and prevent mucus adhesion.
A milling procedure was employed in which an aqueous dispersion containing coarse drug particles and Pluronic F127 (F127) was milled with grinding medium until particle size was reduced below 400 nm as measured by dynamic light scattering. Table 4 lists the size of particles and polydispersity index (a measure of the width of the particle size distribution) generated using this technique. In this example suspensions were buffered using DPBS (Dulbecco's Phosphate-Buffered Saline) which yields a suspension that is both isotonic and has a physiologically relevant pH.

solubility in CVM [1]: soluble in the low pH of CVM
SMILES: Cc1cc(C(=O)Nc2cc(Oc3ccc4nc(NC(=O)CN5CC[C@H](N(C)C)C5)cn4n3)ccc2C)n(C)n1 [Compound I-2]
physical stability of the solution [2]: major physical instability (i.e., precipitation) | Draize-Ocular Irritation [3]: no irritation was seen

Particle Size ([4]; dynamic light scattering): 245 nm
SMILES: Cc1ccc(Oc2ccc3nc(NC(=O)CC4COC4)cn3n2)cc1NC(=O)c1cccc(F)c1 [Compound I-6]

Polydispersity Index (PDI) [4]: 0.160
SMILES: Cc1cc(C(=O)Nc2cc(Oc3ccc4nc(NC(=O)NC5COC5)cn4n3)ccc2C)n(C)n1 [Compound I-5]
